The structures appear in SMILES notation.

In this experiment the target is Beta-secretase 1 (Homo sapiens, UniProt P56817). Put plainly: Inhitbition Assay: 48.5 µL of substrate peptide solution (Biotin-XSEVNLDAEFRHDSGC-Eu: X=ε-amino-n-capronic acid, Eu=Europium cryptate) was added to each well of 96-hole half-area plate (a black plate: Costar), and after addition of 0.5 µl of the test compound (dissolved in N,N'-dimethyl formaldehyde) and 1 µl of Recombinant human BACE1(R&D Systems), the reaction mixture was incubated at 30° C. for 3 hours. The substrate peptide was synthesized by reacting Cryptate TBPCOOH mono SMP (CIS bio international) with Biotin-XSEVNLDAEFRHDSGC (Peptide Institute, Inc.). The final concentrations of the substrate peptide and Recombinant human BACE1 were adjusted to 18 nmol/L and 7.4 nmol/L, respectively, and the reaction was performed in sodium acetate buffer (50 mmol/L sodium acetate, pH 5.0, 0.008% Triton X-100).After the incubation for reaction, 50 µl of 8.0 µg/ml Streptavidin-XL665 (CIS bio international) dissolved in phosphate buffer.
Chain of Beta-secretase 1 (P56817 whole entry): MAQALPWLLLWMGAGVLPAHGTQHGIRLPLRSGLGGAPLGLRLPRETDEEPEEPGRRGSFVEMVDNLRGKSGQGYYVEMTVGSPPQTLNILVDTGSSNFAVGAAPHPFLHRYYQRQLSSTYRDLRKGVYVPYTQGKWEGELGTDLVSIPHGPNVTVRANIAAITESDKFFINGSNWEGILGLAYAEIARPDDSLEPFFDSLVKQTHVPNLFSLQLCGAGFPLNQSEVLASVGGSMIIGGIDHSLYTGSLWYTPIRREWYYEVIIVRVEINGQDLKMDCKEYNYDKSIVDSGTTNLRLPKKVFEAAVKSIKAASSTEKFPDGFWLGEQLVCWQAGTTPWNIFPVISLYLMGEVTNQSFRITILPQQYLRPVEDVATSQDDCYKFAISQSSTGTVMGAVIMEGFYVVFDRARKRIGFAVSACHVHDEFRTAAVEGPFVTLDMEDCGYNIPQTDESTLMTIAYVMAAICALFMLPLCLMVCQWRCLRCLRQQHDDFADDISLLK

For `CC1=C[C@@](C)(c2cc(NC(=O)c3ccc(Cl)cn3)ccc2F)N=C(N)O1`, the IC50 is under 30 µM.

For `C[C@@]1(c2cc(NC(=O)c3ccc(C#N)cn3)ccc2Cl)CCOC(N)=N1`, the IC50 was under 30 µM.

For `C[C@@]1(c2cc(NC(=O)c3ncc(F)cc3F)ccc2F)CCOC(N)=N1`, the IC50 is under 30 µM.

On to `CC1=C[C@@](C)(c2cc(NC(=O)c3ncc(F)cc3F)ccc2F)N=C(N)O1`, for which the 50% inhibitory concentration (IC50) is under 30 µM.

As to `CC1=C[C@@](C)(c2cc(NC(=O)c3ccc(C(F)(F)F)cn3)ccc2F)N=C(N)O1`, the 50% inhibitory concentration (IC50) is under 30 µM.

For `COc1cnc(C(=O)Nc2ccc(F)c([C@]3(C)C=C(C)OC(N)=N3)c2)cn1`, the IC50 is under 30 µM.

Take `CC1=C[C@@](C)(c2cc(NC(=O)c3ncc(C#N)cc3F)ccc2F)N=C(N)O1`: the IC50 is under 30 µM.

Values taken from ChEMBL document CHEMBL3638961, “Oxazine derivatives” (2015).
